Assays:
[1] = target: purified T. gondii adenosine kinase (Toxoplasma gondii, UniProt Q9TVW2); experiment: Alternative substrate assay with purified recombinant enzyme; format: biochemical; settings: 100 μM analogue, overnight at 37°C, HPLC
[2] = test system: Toxoplasma gondii adenosine kinase; settings: read-out: Km (binding affinity); apparent Km equal to apparent Ki; cited from earlier work
[3] = test system: wild type (RH) strain of T. gondii; experiment: Anti-toxoplasmic activity in tissue culture; format: cell-based, Toxoplasma gondii; settings: wild type (RH) in human fibroblasts
[4] = test system: adenosine kinase deficient (TgAK^-3) strain of T. gondii; experiment: Anti-toxoplasmic activity in tissue culture; format: cell-based, Toxoplasma gondii; settings: TgAK^-3 in human fibroblasts
[5] = test system: uninfected human foreskin fibroblasts; experiment: Host toxicity, MTT assay on uninfected host cells; settings: infection: None
[6] = test system: Toxoplasma gondii adenosine kinase; experiment: Binding affinity; settings: relative to 6-(p-methylbenzylthio)inosine; ref 24 and Table 2

Chain of purified T. gondii adenosine kinase (Q9TVW2 whole entry): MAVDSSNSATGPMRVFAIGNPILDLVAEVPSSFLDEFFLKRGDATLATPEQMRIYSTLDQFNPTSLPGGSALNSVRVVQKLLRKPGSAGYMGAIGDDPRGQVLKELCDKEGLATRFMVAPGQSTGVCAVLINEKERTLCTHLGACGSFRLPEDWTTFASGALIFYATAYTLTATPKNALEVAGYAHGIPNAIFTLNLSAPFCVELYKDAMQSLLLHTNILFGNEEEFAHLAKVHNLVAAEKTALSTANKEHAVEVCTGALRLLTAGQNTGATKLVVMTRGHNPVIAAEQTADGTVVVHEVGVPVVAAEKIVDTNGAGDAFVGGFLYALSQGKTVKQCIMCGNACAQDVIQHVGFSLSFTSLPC

SMILES: OCC1CC(n2cnc3c(SCc4ccccc4)ncnc32)C(O)C1O (stereo not shown) [Compound 1, Carbocyclic 6-(benzylthio)inosine]
- metabolism to nucleoside 5'-monophosphate by the enzyme [1]: converted to their respective nucleoside 5’-monophosphates
- Km [2]: 105 µM
- percent survival of parasite ([3]; 5 μM compound): 84.7%
- percent survival of parasite ([3]; 10 μM compound): 42.7%
- percent survival of parasite ([3]; 25 μM compound): 4.9%
- percent survival of parasite ([3]; 50 μM compound): 0.0%
- percent survival of parasite ([4]; 5 μM compound): 100%
- percent survival of parasite ([4]; 10 μM compound): 100%
- percent survival of parasite ([4]; 25 μM compound): 100%
- percent survival of parasite ([4]; 50 μM compound): 100%
- host-toxicity (survival of uninfected host cells) ([5]; 5 μM compound): 100%
- host-toxicity (survival of uninfected host cells) ([5]; 10 μM compound): 100%
- host-toxicity (survival of uninfected host cells) ([5]; 25 μM compound): 100%
- host-toxicity (survival of uninfected host cells) ([5]; 50 μM compound): 94.3%

SMILES: OCC1CC(n2cnc3c(SCc4ccc(F)cc4)ncnc32)C(O)C1O (stereo not shown) [Compound 8, Carbocyclic 6-(p-fluorobenzylthio)inosine]
- metabolism to nucleoside 5'-monophosphate by the enzyme [1]: its 5’-monophosphate derivative appeared as a new peak
- percent survival of parasite ([3]; 5 μM compound): 89.2%
- percent survival of parasite ([3]; 10 μM compound): 61.5%
- percent survival of parasite ([3]; 25 μM compound): 12.4%
- percent survival of parasite ([3]; 50 μM compound): 3.4%
- percent survival of parasite ([4]; 5 μM compound): 100%
- percent survival of parasite ([4]; 10 μM compound): 100%
- percent survival of parasite ([4]; 25 μM compound): 100%
- percent survival of parasite ([4]; 50 μM compound): 100%
- host-toxicity (survival of uninfected host cells) ([5]; 5 μM compound): 100%
- host-toxicity (survival of uninfected host cells) ([5]; 10 μM compound): 100%
- host-toxicity (survival of uninfected host cells) ([5]; 25 μM compound): 100%
- host-toxicity (survival of uninfected host cells) ([5]; 50 μM compound): 100%

SMILES: Cc1ccc(CSc2ncnc3c2ncn3C2CC(CO)C(O)C2O)cc1 (stereo not shown) [Compound 11, Carbocyclic 6-(p-methylbenzylthio)inosine]
- enhancement of binding by inclusion of the carbocyclic motif [6]: 3.7 fold
- percent survival of parasite ([3]; 5 μM compound): 43.4%
- percent survival of parasite ([3]; 10 μM compound): 2.54%
- percent survival of parasite ([3]; 25 μM compound): 0.0%
- percent survival of parasite ([3]; 50 μM compound): 0.0%
- percent survival of parasite ([4]; 5 μM compound): 99.0%
- percent survival of parasite ([4]; 10 μM compound): 100%
- percent survival of parasite ([4]; 25 μM compound): 100%
- percent survival of parasite ([4]; 50 μM compound): 100%
- host-toxicity (survival of uninfected host cells) ([5]; 5 μM compound): 100%
- host-toxicity (survival of uninfected host cells) ([5]; 10 μM compound): 100%
- host-toxicity (survival of uninfected host cells) ([5]; 25 μM compound): 100%
- host-toxicity (survival of uninfected host cells) ([5]; 50 μM compound): 100%

Reference: publication PMC2923275 (Biochemical pharmacology, 2010)
